Experimental data reported in patent US20100324285A1, “ANTIINFLAMMATORY AGENT COMPRISING 2-AMINOPHENOL OR DERIVATIVE THEREOF AS ACTIVE INGREDIENT” (priority 2006, published 2010).

How the values were obtained:
COX-1 = molecular target: T1, COX-1 (Ovis aries, UniProt P05979); test: COX Inhibitor Screening Assay Kit, COX-1; assay type: biochemical
T1 construct: purchased Cayman Chemical Company
T1 sequence (P05979 25-600): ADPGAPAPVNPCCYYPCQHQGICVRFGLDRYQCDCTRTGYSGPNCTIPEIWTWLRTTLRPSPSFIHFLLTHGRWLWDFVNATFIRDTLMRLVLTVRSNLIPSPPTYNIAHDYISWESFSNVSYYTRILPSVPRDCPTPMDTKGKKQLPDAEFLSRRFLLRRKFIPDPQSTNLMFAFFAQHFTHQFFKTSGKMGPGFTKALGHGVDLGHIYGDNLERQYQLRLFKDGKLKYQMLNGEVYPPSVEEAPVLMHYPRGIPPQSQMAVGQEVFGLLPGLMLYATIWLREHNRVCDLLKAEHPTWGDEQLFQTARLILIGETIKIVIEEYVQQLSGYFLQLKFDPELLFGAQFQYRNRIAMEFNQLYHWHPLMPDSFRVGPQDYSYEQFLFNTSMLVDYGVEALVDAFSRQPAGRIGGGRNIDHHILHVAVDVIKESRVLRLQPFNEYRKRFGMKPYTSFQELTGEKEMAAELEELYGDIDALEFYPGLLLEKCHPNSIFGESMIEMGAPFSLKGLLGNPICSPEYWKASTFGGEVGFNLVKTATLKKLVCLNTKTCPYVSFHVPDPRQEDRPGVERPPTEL
Source text: Fifty percent inhibitory concentration (IC50) means the concentration of test sample necessary for inhibiting PGE2 synthesis by 50% compared to non-inhibitory control sample. It can be also determined by measuring the amount of PGE2 produced by adding test samples to cells having cyclooxygenase activity. COX-1/COX-2 ratio means the ratio of […], and the higher the ratio is, the more specific to COX-2 the agent is.
To verify the results of Experiment 2, it was investigated that whether the activity of COXs, essential enzymes for PGE2 synthesis system, can be inhibited. […] An experimental system without the test samples was set as control. The residual activity of COX-1 or COX-2 was determined as relative activity versus control.

RBL-2H3 = test: Degranulation reaction of basocyte (β-hexosaminidase release); assay type: cell-based, rat
Procedure: Degranulation rate (%) and inhibition rate of degranulation (%) were calculated based on the measurements of β-hexosaminidase activity in the granules released from the cells by degranulation reaction.
Rat cancer cells from basocyte RBL-2H3(catalognumber“JCRB0023”, commercialized by Health Science Research Resources Bank of Japan Health Sciences Foundation), known to be degranulated by cross-linkage of IgE, were used after cultured in a MEM medium (commercialized by Nissui Pharmaceutical Co., Ltd.) supplemented with 10% (v/v) FCS.
The above cells were recovered from a flask by conventional trypsin-EDTA treatment, then suspended in a MEM medium supplemented with 10% (v/v) FCS to give a cell concentration of 5×10^5 cells/ml. The suspension was inoculated to a 24-well microplate in a volume of 400 μl per well, cultured in a 5% (v/v) carbon dioxide incubator for 3 to 5 hours, then admixed with 0.625 μg/ml of anti dinitrophenol (hereinafter abbreviated as “DNP”) mouse IgE (commercialized by Sigma-Aldrich, Inc., diluted by MEM medium supplied with 10% (v/v) FCS) in a volume of 100 μl per well to sensitize the cells by IgE (a final concentration of the anti DNP-IgE was 0.125 μg/ml). After the cells were cultured in the 5% (v/v) carbon dioxide incubator overnight, the supernatant was removed by suction, and then each well was washed twice with Siraganian buffer (119 mM NaCl, 5 mM KCl, 0.4 mM MgCl2, 25 mM piperazine-N,N″-bis(2-ethane sulfonic acid) (PIPES), 40 mM NaOH, pH 7.2) by 500 μl per well. After admixed with Siraganian buffer containing 0.1% bovine serum albumin (BSA), 5.6 mM glucose and 1 mM CaCl2 (hereinafter described as “BSA-containing Siraganian buffer) in a volume of 160 μl per well, the microplate was warmed at 37° C. for 15 minutes. As test samples, 2-aminophenoxazine-3-one (questiomycin A), arbutin having skin-whitening effect and oxatomide used as therapeutic agents for allergic diseases (positive control) were diluted with BSA-containing Siraganian buffer to give the concentrations shown in Table 3, any of the test samples was added by 20 μl per well, then the microplate was warmed at 37° C. for 15 minutes (wells with the test samples). The well with any of the test samples was admixed with DNP-albumin (commercialized by Sigma-Aldrich, Inc.) diluted with BSA-containing Siraganian buffer to give a concentration of 50 μg/ml by 20 μl per well, and warmed at 37° C. for 15 minutes. After the 24-well microplate was cooled on ice for 10 minutes, the supernatant was collected and 100 μl thereof was injected into a 96-well microplate to measure the β-hexosaminidase activity in the supernatant. As negative control, BL-2H3 cells were cultured and treated in the same way as the wells admixed with the test samples except for that FCS-supplemented MEM medium containing no antibody was used, and the β-hexosaminidase activity in the supernatant was measured (the well without IgE sensitization). After the supernatants were removed from some of the wells without IgE sensitization, the wells were washed twice with BSA-containing Siraganian buffer and admixed with BSA-containing Siraganian buffer by 200 μl per well. The cells were broken by twice repeating freezing at −80° C. and thawing, whole medium containing the broken cells was collected, centrifuged at 1,500 rpm for 10 minutes, and then 100 μl of the supernatant was injected into a 96-well microplate to measure the β-hexosaminidase activity of the whole granule extract.
Each well of the 96-well microplate injected with any of the supernatant from the wells with the test samples, the supernatant from the wells without IgE sensitization or the whole granule extract described above was admixed with 50 μl of citrate buffer (pH 4.5) containing 1 mM 4-nitrophenyl-N-acetyl-β-glucosaminide (PNAG) as substrate, kept at 37° C. for 1 hour, and then the reaction was stopped by adding 50 μl of 0.1 M sodium carbonate (pH 10.5). […]

[1] = system: Mouse melanoma cell line B16; test: Living cell rate of B16 cells; conditions: 5 days, versus control
Procedure: As control, a system with no test sample was provided. […] The amount of protein was measured by conventional Bradfordmethod and the amount of melanin per 1 mg of protein was calculated. The amount of melanin (%) was calculated according to Formula 4, and the living cell rate (%) was calculated according to Formula 5.

[2] = read-out: residual activity of COX-1

Nc1cc2nc3ccccc3oc-2cc1=O [2-Aminophenoxazine-3-one, 2-aminophenoxazine-3-one]
IC50 (COX-1; PGE2 from arachidonic acid, read-out: IC50 COX-1): 6.44 µM | remaining activity at 1.9 µM (COX-1; [2]): 89% | remaining activity at 3.8 µM (COX-1; [2]): 59% | remaining activity at 7.6 µM (COX-1; [2]): 44% | inhibition at 0.63 µM (RBL-2H3; Rattus norvegicus, RBL-2H3, 0.63 μM, read-out: Inhibition intensity of degranulation): -30 to 30% | inhibition at 5 µM (RBL-2H3; Rattus norvegicus, RBL-2H3, 5 μM, read-out: Inhibition intensity of degranulation): 30 to 50% | inhibition at 10 µM (RBL-2H3; Rattus norvegicus, RBL-2H3, 10 μM, read-out: Inhibition intensity of degranulation): ≥ 50% | inhibition at 23 µM (RBL-2H3; Rattus norvegicus, RBL-2H3, 23 μM, read-out: Inhibition intensity of degranulation): ≥ 50% | inhibition at 31.3 µM (RBL-2H3; Rattus norvegicus, RBL-2H3, 31.3 μM, read-out: Inhibition intensity of degranulation): ≥ 50% | inhibition at 40 µM (RBL-2H3; Rattus norvegicus, RBL-2H3, 40 μM, read-out: Inhibition intensity of degranulation): ≥ 50% | concentration at which inhibiting activity on degranulation was exerted (RBL-2H3; summary of Table 3): ≥ 5 µM | Living cell rate (%) ([1]; 0.5 μM): 107% | Living cell rate (%) ([1]; 1 μM): 95% | Living cell rate (%) ([1]; 2 μM): 77%
